From paper PMC11633415, “Investigation of the inhibitory properties of azo-dyes on chorismate synthase from Paracoccidioides brasiliensis” (Journal of Enzyme Inhibition and Medicinal Chemistry, 2024)
Where two headings read alike, the source gives them in different places.

Columns and labels:
[1] = test system: CS from Streptococcus pneumoniae (SpCS); design: method as in PMID 12565943; conditions: SpCS ref 12; cited from earlier work
[2] = biological target: T1, PbCS (Paracoccidioides brasiliensis, UniProt C1GBW5); design: method as in PMID 30348661; conditions: PbCS ref 13, cited from earlier work
T1 sequence (C1GBW5 entry or part of it): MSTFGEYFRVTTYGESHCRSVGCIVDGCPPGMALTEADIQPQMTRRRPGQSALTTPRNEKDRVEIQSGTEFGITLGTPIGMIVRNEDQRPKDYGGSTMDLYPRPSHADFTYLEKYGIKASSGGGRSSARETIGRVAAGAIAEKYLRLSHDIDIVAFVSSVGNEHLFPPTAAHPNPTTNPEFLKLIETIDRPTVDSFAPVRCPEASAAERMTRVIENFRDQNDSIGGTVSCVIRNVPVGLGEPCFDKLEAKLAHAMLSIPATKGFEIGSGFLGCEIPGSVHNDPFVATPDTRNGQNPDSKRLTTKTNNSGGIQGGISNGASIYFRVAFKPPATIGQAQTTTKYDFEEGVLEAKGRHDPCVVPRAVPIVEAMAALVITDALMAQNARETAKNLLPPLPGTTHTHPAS

[3] = biological target: T1, PbCS; design: method as in PMID 30348661
[4] = biological target: chorismate synthase from Paracoccidioides brasiliensis (PbCS) (Paracoccidioides brasiliensis, UniProt C1GBW5); experiment: Spectrophotometric titration / binding assay, PbCS
Chain of chorismate synthase from Paracoccidioides brasiliensis (PbCS) (C1GBW5 entry or part of it): as above
Procedure: (§1) For the binding studies, PH011669 was dissolved in 50 mM NaH2PO4 and 150 mM NaCl at pH 8, diluted to a final concentration of approximately 10 µM (A580nm ∼0.25; 800 µL), and transferred to a quartz cuvette (with 800 µL of buffer in the reference cuvette). After recording an initial UV-visible absorption spectrum between 300 and 800 nm, 10 µL aliquots of PbCS (∼55 µM) were added, and spectral changes were monitored after each addition. To quantify the binding affinity of PH011669 to PbCS, we plotted the relative absorption changes at 510 nm as a function of the protein concentration in the cuvette[17].

[5] = biological target: chorismate synthase (CS) (Tetrahymena thermophila, UniProt Q23FV7); experiment: Spectrophotometric titration, CS from Tetrahymena thermophila; type: binding
Chain of chorismate synthase (CS) (Tetrahymena thermophila, UniProt Q23FV7) (Q23FV7 entry or part of it): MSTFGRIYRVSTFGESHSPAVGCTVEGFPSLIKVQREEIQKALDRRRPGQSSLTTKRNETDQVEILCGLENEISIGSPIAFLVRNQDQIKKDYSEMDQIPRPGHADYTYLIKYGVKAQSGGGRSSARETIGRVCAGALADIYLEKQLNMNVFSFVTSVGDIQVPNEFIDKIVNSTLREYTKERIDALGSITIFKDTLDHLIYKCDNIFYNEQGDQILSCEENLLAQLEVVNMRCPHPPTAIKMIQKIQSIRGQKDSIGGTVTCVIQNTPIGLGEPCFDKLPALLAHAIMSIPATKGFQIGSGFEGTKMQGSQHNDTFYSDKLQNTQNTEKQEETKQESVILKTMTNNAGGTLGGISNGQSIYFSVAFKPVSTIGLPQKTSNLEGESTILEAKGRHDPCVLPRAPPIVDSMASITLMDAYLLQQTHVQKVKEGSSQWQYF

[6] = biological target: T2, chorismate synthase (CS) (Aquifex aeolicus, UniProt O66493); experiment: Spectrophotometric titration, CS from Aquifex aeolicus; type: binding
T2 construct: made in house; host or cells: E. coli
T2 sequence (O66493 whole entry): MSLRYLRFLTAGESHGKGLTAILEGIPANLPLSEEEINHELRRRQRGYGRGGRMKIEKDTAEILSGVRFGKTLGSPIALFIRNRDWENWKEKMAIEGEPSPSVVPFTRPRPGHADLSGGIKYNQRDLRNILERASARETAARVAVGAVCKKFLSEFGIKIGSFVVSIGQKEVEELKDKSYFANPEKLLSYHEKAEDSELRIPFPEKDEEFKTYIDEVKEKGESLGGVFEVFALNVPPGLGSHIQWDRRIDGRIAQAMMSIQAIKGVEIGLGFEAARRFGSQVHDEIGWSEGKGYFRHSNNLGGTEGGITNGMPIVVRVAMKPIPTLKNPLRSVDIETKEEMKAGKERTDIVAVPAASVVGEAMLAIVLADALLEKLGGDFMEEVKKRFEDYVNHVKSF

[7] = biological target: T1, PbCS; experiment: Inhibition assay, CS reaction coupled with anthranilate synthase reaction; type: biochemical; conditions: 80 μM EPSP, 4 μM PbCS, 37 °C, Hill fit
Procedure: The influence of PH011669 on the activity of PbCS was tested by forward coupling the CS reaction with the anthranilate synthase reaction. The final reaction solution contained 80 μM EPSP, 4 μM PbCS, 7 µM YcnD, 20 μM anthranilate synthase, 4 mM MgSO4, 10 mM L-glutamine (L-Gln), 30 mM (NH4)2SO4, 1 mM dithiothreitol (DTT) and different concentrations of the inhibitor (0.1–250 µM). The assay was prepared in 10 mM potassium phosphate at pH 7.6 and pipetted into a 96-well plate. The reaction was started by the addition of 500 µM NADPH. PbCS activity could be studied spectrofluorometrically at 37 °C by following the increase in the fluorescence intensity at 390 nm (λex = 340 nm) for 5 min, which correlates with the amount of anthranilate formed in the course of the reaction. The slopes of the initial velocities were determined and plotted as a function of the log of the corresponding PH011669 concentration (triplicates were determined).
To test the inhibitory effect of PH011669 on the activity of CS, we used a coupled assay involving EPSP, CS, YcnD and anthranilate synthase. Our inhibition assay has been used to determine the ability of a drug to reduce the activity of the enzyme. The resulting IC50 value gives the concentration of a drug required for 50% inhibition of the enzymatic activity. […]

[8] = biological target: T3, chorismate synthase (CS) (Escherichia coli, UniProt P12008); experiment: Spectrophotometric titration, CS from Escherichia coli; type: binding
T3 construct: made in house; host or cells: E. coli
T3 sequence (P12008 whole entry): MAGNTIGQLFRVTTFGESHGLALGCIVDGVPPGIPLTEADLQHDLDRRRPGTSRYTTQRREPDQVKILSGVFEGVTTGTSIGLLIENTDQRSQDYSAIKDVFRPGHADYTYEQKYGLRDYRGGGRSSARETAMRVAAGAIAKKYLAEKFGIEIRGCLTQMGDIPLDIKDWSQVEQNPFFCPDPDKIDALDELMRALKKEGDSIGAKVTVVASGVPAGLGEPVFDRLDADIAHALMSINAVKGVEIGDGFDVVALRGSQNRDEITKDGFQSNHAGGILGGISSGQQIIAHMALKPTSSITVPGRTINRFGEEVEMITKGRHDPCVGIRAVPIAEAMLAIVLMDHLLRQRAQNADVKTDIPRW

[9] = biological target: chorismate synthase (CS) (Candida albicans, UniProt A0A1D8PTK1); experiment: Spectrophotometric titration, CS from Candida albicans; type: binding; conditions: CS from Candida albicans (fungus)
[10] = biological target: T4, chorismate synthase (CS) (Thermotoga maritima, UniProt Q9WYI2); experiment: Spectrophotometric titration, CS from Thermotoga marítima; type: binding
T4 construct: made in house; host or cells: E. coli
T4 sequence (Q9WYI2 whole entry): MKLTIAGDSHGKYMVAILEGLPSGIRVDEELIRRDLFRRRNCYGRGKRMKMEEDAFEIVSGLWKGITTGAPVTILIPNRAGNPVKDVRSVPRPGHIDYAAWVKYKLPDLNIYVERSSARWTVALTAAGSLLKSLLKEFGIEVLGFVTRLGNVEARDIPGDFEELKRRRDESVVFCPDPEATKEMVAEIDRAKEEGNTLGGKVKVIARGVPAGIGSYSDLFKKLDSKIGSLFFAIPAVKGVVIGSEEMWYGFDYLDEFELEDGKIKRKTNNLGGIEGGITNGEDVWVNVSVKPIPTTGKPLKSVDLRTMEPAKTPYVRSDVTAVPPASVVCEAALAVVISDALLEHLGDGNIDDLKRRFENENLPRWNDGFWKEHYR

[11] = biological target: chorismate synthase (CS) (Toxoplasma gondii, UniProt O02607); experiment: Spectrophotometric titration, CS from Toxoplasmodium gondii; type: binding; conditions: CS from Toxoplasmodium gondii (protozoon)
[12] = biological target: T5, chorismate synthase (CS) (Capnoides sempervirens, UniProt P27793); experiment: Spectrophotometric titration, CS from Corydalis sempervirens; type: binding; conditions: CS from Corydalis sempervirens (plant)
T5 construct: made in house; host or cells: E. coli

[13] = biological target: T6, chorismate synthase (CS) (Trichormus variabilis, UniProt Q3MFM3); experiment: Spectrophotometric titration, CS from Anabaena variabilis; type: binding; conditions: CS from Anabaena variabilis (cyanobacterium)
T6 construct: made in house; host or cells: E. coli
T6 sequence (Q3MFM3 whole entry): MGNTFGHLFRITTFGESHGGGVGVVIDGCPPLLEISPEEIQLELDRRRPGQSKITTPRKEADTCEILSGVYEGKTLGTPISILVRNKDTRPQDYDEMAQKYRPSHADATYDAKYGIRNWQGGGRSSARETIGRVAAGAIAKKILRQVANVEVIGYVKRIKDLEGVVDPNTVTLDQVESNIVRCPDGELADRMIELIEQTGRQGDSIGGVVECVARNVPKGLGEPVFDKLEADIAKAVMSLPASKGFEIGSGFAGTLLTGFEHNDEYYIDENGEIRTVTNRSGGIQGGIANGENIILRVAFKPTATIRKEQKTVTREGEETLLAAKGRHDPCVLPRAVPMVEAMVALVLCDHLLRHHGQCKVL

[14] = biological target: chorismate synthase (CS) (Botrytis cinerea, UniProt A0A384JF70); experiment: Spectrophotometric titration, CS from Botrytis fuckeliana; type: binding; conditions: CS from Botrytis fuckeliana (fungus)
Chain of chorismate synthase (CS) (Botrytis cinerea, UniProt A0A384JF70) (A0A384JF70 entry or part of it): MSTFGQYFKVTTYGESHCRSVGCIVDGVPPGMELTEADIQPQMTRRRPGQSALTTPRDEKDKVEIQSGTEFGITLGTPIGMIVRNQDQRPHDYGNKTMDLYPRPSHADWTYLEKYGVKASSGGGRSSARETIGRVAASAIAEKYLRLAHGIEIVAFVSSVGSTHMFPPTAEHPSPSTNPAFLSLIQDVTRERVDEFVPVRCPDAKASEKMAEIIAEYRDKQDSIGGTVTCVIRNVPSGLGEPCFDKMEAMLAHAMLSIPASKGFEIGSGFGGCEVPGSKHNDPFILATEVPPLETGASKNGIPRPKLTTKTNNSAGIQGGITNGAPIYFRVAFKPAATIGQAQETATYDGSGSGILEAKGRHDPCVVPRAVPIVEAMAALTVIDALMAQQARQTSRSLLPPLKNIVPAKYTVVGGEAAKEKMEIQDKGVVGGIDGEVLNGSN

[15] = biological target: T1, PbCS; experiment: Isothermal titration calorimetry (ITC); conditions: single site binding model, 25 °C, pH 8, triplicates, read-out: dissociation constant by ITC
Procedure: Isothermal titration calorimetry (ITC) was performed on a MicroCal PEAQ-ITC. All ITC experiments were conducted in storage buffer (50 mM NaH2PO4, 150 mM NaCl, pH 8) at 25 °C and a stirring rate of 750 rpm. Titration experiments consisted of 13 injections (first injection: 0.4 µL; duration time: 0.8 s; spacing time: 300 s; 2nd–13th injection: 3 µL; duration time: 6 s; spacing time: 150 s) and were performed in triplicates. The azo-dye PH011669 (500 µM) was loaded into the injection syringe and titrated into the sample cell containing PbCS (25 µM); the reference cell was filled with degassed ddH2O. Dissociation constants were obtained with the MicroCal PEAQ-ITC Analysis Software (Malvern) using the “one set of sites fitting” model.

[16] = biological target: chorismate synthase (CS); experiment: Spectrophotometric titration, CS from Solanum lycopersicum; type: binding; conditions: CS from Solanum lycopersicum (plant)
[17] = biological target: T7, chorismate synthase (CS) (Saccharomyces cerevisiae, UniProt P28777); experiment: Spectrophotometric titration, CS from Saccharomyces cerevisiae; type: binding; conditions: CS from Saccharomyces cerevisiae (yeast)
T7 construct: made in house; host or cells: E. coli
T7 sequence (P28777 whole entry): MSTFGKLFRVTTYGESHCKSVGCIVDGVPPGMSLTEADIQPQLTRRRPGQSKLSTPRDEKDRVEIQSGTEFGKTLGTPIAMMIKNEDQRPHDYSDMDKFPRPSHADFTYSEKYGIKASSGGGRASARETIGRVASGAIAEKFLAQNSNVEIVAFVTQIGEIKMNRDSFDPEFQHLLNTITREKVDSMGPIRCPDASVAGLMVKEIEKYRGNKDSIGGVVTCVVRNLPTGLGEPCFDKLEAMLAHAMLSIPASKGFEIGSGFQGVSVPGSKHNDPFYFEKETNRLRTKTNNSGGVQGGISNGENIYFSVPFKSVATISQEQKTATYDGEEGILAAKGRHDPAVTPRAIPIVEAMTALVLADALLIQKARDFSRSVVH

[18] = biological target: chorismate synthase (CS) (Staphylococcus aureus, UniProt Q2FYG9); experiment: Spectrophotometric titration, CS from Staphylococcus aureus; type: binding
Chain of chorismate synthase (CS) (Staphylococcus aureus, UniProt Q2FYG9) (Q2FYG9 whole entry): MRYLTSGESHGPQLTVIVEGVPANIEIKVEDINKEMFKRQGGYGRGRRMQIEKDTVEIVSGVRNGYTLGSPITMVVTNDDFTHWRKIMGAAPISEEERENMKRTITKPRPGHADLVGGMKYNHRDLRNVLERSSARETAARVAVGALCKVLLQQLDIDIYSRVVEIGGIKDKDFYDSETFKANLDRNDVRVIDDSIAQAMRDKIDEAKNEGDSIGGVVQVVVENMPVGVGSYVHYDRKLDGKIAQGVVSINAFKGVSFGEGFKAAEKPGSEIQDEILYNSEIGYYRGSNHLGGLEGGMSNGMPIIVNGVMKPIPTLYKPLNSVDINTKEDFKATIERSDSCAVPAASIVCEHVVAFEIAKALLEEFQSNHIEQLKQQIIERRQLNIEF

[19] = biological target: T8, chorismate synthase (CS) (Neurospora crassa, UniProt Q12640); experiment: Spectrophotometric titration, CS from Neurospora crassa; type: binding; conditions: CS from Neurospora crassa (fungus)
T8 construct: made in house; host or cells: E. coli
T8 sequence (Q12640 whole entry): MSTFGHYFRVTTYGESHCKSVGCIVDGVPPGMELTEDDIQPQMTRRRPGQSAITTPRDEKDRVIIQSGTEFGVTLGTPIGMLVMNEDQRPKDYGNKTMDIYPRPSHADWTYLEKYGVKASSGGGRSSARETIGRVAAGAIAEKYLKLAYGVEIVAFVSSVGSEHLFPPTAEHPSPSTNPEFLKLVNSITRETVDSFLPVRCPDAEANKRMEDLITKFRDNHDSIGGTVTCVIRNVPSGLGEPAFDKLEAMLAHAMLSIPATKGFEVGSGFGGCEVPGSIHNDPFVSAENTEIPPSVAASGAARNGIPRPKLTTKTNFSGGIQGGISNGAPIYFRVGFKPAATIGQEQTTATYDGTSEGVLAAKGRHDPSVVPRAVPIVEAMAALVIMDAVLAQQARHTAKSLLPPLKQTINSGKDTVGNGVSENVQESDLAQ
Procedure: as §1

[20] = biological target: chorismate synthase (CS) (Methanothermobacter thermautotrophicus, UniProt O26843); experiment: Spectrophotometric titration, CS from Methanobacterium thermoautotrophicum; type: binding
Chain of chorismate synthase (CS) (Methanothermobacter thermautotrophicus, UniProt O26843) (O26843 whole entry): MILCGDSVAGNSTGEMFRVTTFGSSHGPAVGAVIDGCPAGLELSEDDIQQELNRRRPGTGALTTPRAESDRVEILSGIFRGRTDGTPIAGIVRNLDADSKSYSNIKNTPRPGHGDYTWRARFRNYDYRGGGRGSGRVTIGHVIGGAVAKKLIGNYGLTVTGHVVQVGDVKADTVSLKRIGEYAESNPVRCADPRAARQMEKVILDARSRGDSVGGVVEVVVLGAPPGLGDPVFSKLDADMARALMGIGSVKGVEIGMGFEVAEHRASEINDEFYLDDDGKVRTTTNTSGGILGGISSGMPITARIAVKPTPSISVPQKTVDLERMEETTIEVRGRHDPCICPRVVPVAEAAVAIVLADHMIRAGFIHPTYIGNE

[21] = biological target: CS from Neurospora crassa; design: method as in earlier work; conditions: competitive inhibitor of CS from Neurospora crassa ref 9; cited from earlier work
[22] = test system: CS; design: method as in PMID 7559411; conditions: very slow substrate of CS ref 10; cited from earlier work
[23] = biological target: CS from N. crassa; conditions: CS from N. crassa ref 30; cited from earlier work

For `CCCCCOc1ccc(/C=C2\Oc3c(ccc(O)c3O)C2=O)c(O)c1` [BF2], the IC50 [1] is listed as 0.22 µM.
In the case of `O=[N+]([O-])c1ccc(/N=N/c2c(S(=O)(=O)O)cc3cc(S(=O)(=O)O)ccc3c2O)c([N+](=O)[O-])c1` [CaCS02, 2-(2,4-dinitrophenylazo)-1-hydroxynaphthalene-3,6-disulfonic acid (nitrazine yellow)], the IC50 ([2]; read-out: IC50) is listed as 29 µM and the Kd ([3]; PbCS ref 13; read-out: dissociation constant; cited from earlier work) is listed as 20 µM.
For `CCN(CC)c1ccc(/C=C2\Oc3c(ccc(O)c3O)C2=O)cc1` [BF1], the IC50 [1] is listed as 8 µM.
For `Nc1cc(S(=O)(=O)O)cc2cc(S(=O)(=O)O)c(/N=N/c3cc([N+](=O)[O-])cc(Cl)c3O)c(O)c12` [PH011669, 5-amino-3-[(E)-(3-chloro-2-hydroxy-5-nitrophenyl)diazenyl]-4-hydroxy-2,7-naphthalenedisulfonic acid], the “higher affinity than the initial hit” value ([4]; affinity to PbCS relative to initial hit (CaCS02)) was “ca. 20 fold”, the Kd ([4]; read-out: Kd (dissociation constant), spectrophotometric titration, PbCS) was 1.1 µM and the Kd [5] was 4.4 ± 0.1 µM. For the same compound, the Kd [6] was 3.2 ± 0.1 µM, the IC50 [7] was 10 ± 1 µM and the Kd [8] was 3.7 ± 1 µM. For the same compound, the Kd [9] was 4.6 ± 0.7 µM, the Kd [10] was 1.5 µM and the Kd [11] was 1.7 µM. It also gave a Kd [12] of 1 ± 0.1 µM, a Kd [13] of 1.8 ± 0.1 µM and a Kd [14] of 4 ± 0.6 µM. It also gave a Kd [15] of 3.8 ± 1.8 µM, a Kd [16] of 1.8 ± 0.1 µM and a Kd [17] of 2.4 ± 0.1 µM. The Kd [18] was 3.7 ± 0.1 µM, the Kd [19] was 3.5 ± 0.1 µM and the Kd [20] was 2.7 µM.
For `C=C(OC1C(O)C(OP(=O)(O)O)C=C(C(=O)O)[C@H]1F)C(=O)O` (stereo partly drawn) [6(R)-6-fluoro-EPSP, (6R)-6-fluoro-5-enolpyruvylshikimate 3-phosphate], the Ki [21] is given as 3 ± 0.3 µM.
For `C=C(OC1C(O)C(OP(=O)(O)O)C=C(C(=O)O)[C@@H]1F)C(=O)O` (stereo partly drawn) [6(S)-6-fluoro-EPSP, (6S)-6-fluoro-5-enolpyruvylshikimate-3-phosphate], the “slower turnover than EPSP” value [22] is given as 200 fold.
In the case of `C=C(OC1CC(C(=O)O)=CC(OP(=O)(O)O)C1O)C(=O)O` (stereo not drawn) [EPSP, 5-enolpyruvylshikimate-3-phosphate], the Kd [23] is listed as 17 µM.
In the case of `O=C(O)[C@H]1Nc2c(cccc2[N+](=O)[O-])[C@@H]2[C@H](Cl)[C@@H](Sc3ccccc3[N+](=O)[O-])C[C@@H]21` [CP1, (1S,2S,3aS,4S,9bR)-1-chloro-6-nitro-2-(2-nitrophenyl)sulfanyl-2,3,3a,4,5,9b-hexahydro-1H-cyclopenta[c]quinoline-4-carboxylic acid], the IC50 [2] is given as 47 µM and the Kd ([3]; read-out: dissociation constant; PbCS ref 13; cited from earlier work) is given as 64 ± 1 µM.
